Columns and labels:
Format in all cases: biochemical
[1] = target: T1, LCK (Homo sapiens, UniProt P06239); assay: Proqinase Kinase profiling; details: read-out: % inhibition at 100nM
T1 construct: purchased DiscoverX

[2] = target: T2, ALK (Homo sapiens, UniProt Q9UM73); assay: Proqinase Kinase profiling; details: read-out: % inhibition at 100nM
T2 construct: purchased DiscoverX

[3] = target: T3, MKNK2 (Homo sapiens, UniProt Q9HBH9); assay: Proqinase Kinase profiling; details: read-out: % inhibition at 100nM
T3 construct: purchased DiscoverX

[4] = target: T4, PRKCG (Homo sapiens, UniProt P05129); assay: Proqinase Kinase profiling; details: read-out: % inhibition at 100nM
T4 construct: purchased DiscoverX

[5] = target: T5, ACVR2B (Homo sapiens, UniProt Q13705); assay: Proqinase Kinase profiling; details: read-out: % inhibition at 100nM
T5 construct: T7 phage fusion (or DNA tag for qPCR if made in HEK-293); purchased DiscoverX; host or cells: E. coli (T7 phage) or HEK-293
T5 sequence (Q13705 19-512): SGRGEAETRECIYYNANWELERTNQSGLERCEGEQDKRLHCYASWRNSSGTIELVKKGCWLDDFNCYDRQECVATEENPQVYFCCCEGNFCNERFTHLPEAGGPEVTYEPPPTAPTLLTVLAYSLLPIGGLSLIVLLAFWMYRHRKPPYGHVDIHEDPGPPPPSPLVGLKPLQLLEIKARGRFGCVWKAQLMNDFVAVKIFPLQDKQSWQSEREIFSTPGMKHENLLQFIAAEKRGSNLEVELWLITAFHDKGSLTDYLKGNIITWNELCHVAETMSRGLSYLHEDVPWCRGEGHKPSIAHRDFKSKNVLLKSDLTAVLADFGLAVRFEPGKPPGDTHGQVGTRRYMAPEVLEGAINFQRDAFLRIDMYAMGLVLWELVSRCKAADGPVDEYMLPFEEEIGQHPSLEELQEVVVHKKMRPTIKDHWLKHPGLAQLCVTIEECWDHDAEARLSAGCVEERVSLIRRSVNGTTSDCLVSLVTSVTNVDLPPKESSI

[6] = target: T6, MYLK (Homo sapiens, UniProt Q15746); assay: Proqinase Kinase profiling; details: read-out: % inhibition at 100nM
T6 construct: purchased DiscoverX

[7] = target: T7, ALK_F1174L (Homo sapiens, UniProt Q9UM73, F1174L); assay: Proqinase Kinase profiling; details: read-out: % inhibition at 100nM
T7 construct: purchased DiscoverX

[8] = target: T8, EIF2AK1 (Homo sapiens, UniProt Q9BQI3); assay: Proqinase Kinase profiling; details: read-out: % inhibition at 100nM
T8 construct: purchased DiscoverX
T8 sequence (Q9BQI3 whole entry): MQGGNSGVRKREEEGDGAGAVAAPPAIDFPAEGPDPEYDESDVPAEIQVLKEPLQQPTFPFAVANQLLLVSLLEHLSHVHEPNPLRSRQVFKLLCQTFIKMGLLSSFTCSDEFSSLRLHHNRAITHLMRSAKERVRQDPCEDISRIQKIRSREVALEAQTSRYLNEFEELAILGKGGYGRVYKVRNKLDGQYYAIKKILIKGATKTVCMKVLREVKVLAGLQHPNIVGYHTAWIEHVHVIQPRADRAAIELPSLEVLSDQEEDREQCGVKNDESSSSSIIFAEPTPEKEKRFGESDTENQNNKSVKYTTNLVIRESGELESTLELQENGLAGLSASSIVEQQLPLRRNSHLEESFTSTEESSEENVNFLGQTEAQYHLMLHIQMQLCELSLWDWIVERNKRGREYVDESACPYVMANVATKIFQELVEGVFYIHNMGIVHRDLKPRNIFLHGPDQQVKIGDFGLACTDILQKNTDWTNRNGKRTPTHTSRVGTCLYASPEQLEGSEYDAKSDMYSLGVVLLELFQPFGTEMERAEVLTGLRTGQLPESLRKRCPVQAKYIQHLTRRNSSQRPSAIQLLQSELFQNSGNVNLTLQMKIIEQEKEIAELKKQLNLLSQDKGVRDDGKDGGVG

[9] = target: T9, IGF1R (Homo sapiens, UniProt P08069); assay: Proqinase Kinase profiling; details: read-out: % inhibition at 100nM
T9 construct: purchased DiscoverX
T9 sequence (P08069 31-1367): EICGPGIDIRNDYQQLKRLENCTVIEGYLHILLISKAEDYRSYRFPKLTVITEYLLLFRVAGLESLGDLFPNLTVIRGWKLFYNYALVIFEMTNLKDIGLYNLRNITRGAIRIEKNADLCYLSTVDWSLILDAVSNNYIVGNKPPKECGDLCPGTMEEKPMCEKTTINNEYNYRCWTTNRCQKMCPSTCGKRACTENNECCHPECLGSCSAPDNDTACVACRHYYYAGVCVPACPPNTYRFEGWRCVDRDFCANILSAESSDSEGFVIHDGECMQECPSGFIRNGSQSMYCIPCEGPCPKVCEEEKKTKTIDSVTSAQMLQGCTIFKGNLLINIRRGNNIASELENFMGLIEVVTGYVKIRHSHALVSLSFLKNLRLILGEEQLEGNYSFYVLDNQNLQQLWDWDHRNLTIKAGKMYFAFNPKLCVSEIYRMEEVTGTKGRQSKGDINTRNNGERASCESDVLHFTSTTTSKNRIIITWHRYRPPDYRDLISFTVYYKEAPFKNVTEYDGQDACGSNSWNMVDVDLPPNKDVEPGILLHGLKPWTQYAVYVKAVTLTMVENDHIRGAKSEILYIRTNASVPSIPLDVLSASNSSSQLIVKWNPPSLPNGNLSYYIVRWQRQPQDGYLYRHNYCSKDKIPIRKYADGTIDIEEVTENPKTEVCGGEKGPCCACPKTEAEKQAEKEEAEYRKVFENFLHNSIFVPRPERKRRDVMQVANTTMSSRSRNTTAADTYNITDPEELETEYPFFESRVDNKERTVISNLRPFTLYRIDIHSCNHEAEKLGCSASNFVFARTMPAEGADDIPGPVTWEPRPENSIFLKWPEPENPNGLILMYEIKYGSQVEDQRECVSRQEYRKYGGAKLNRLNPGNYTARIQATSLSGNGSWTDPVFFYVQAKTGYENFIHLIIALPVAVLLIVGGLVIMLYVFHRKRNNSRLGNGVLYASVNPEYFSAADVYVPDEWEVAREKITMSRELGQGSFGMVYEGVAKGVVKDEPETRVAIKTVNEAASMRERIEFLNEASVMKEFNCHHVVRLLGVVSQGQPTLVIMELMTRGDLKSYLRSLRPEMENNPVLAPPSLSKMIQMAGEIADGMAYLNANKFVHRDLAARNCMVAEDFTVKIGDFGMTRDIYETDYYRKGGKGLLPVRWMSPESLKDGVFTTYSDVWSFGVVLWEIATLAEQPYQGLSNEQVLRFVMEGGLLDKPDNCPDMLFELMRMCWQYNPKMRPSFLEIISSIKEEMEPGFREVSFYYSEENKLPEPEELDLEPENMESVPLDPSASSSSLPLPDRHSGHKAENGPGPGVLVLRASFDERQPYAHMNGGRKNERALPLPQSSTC

[10] = target: T10, TBK1 (Homo sapiens, UniProt Q9UHD2); assay: Proqinase Kinase profiling; details: read-out: % inhibition at 100nM
T10 construct: purchased DiscoverX
T10 sequence (Q9UHD2 whole entry): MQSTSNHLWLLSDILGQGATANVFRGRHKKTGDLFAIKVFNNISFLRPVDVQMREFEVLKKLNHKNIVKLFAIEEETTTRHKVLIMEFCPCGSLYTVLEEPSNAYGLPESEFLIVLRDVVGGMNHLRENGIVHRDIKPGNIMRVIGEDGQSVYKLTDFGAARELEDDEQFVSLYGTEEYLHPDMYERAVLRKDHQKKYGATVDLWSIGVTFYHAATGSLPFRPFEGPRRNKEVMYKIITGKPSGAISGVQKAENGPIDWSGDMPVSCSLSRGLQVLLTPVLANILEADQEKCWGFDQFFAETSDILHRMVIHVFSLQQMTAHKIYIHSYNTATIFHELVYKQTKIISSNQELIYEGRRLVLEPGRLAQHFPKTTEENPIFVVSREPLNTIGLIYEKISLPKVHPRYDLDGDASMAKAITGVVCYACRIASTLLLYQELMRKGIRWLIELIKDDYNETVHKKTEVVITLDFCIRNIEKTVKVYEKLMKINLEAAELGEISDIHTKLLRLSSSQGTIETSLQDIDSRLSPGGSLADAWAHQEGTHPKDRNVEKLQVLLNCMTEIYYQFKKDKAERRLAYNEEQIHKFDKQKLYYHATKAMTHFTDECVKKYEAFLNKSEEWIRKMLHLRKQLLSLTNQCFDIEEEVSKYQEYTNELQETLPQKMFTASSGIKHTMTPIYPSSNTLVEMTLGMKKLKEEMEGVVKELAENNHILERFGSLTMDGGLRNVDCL

[11] = target: T11, YES1 (Homo sapiens, UniProt P07947); assay: Proqinase Kinase profiling; details: read-out: % inhibition at 100nM
T11 construct: purchased DiscoverX

[12] = target: T12, PRKCE (Homo sapiens, UniProt Q02156); assay: Proqinase Kinase profiling; details: read-out: % inhibition at 100nM
T12 construct: purchased DiscoverX

[13] = target: T13, RPS6KA3 (Homo sapiens, UniProt P51812); assay: Proqinase Kinase profiling; details: read-out: % inhibition at 100nM
T13 construct: purchased DiscoverX

[14] = target: T14, PRKG2 (Homo sapiens, UniProt Q13237); assay: Proqinase Kinase profiling; details: read-out: % inhibition at 100nM
T14 construct: purchased DiscoverX

[15] = target: T15, BLK (Homo sapiens, UniProt P51451); assay: Proqinase Kinase profiling; details: read-out: % inhibition at 100nM
T15 construct: purchased DiscoverX

[16] = target: T16, MAP3K2 (Homo sapiens, UniProt Q9Y2U5); assay: Proqinase Kinase profiling; details: read-out: % inhibition at 100nM
T16 construct: purchased DiscoverX

[17] = target: T17, EGFR_G719S (Homo sapiens, UniProt P00533, G719S); assay: Proqinase Kinase profiling; details: read-out: % inhibition at 100nM
T17 construct: purchased DiscoverX

[18] = target: T18, RAF1 (Homo sapiens, UniProt P04049); assay: Proqinase Kinase profiling; details: read-out: % inhibition at 100nM
T18 construct: purchased DiscoverX

[19] = target: T19, CLK3 (Homo sapiens, UniProt P49761); assay: Proqinase Kinase profiling; details: read-out: % inhibition at 100nM
T19 construct: purchased DiscoverX

[20] = target: ALK2 wt (Homo sapiens, UniProt Q04771); assay: RBC HotSpot Kinase assay
Chain of ALK2 wt (Q04771 208-502 limits assumed): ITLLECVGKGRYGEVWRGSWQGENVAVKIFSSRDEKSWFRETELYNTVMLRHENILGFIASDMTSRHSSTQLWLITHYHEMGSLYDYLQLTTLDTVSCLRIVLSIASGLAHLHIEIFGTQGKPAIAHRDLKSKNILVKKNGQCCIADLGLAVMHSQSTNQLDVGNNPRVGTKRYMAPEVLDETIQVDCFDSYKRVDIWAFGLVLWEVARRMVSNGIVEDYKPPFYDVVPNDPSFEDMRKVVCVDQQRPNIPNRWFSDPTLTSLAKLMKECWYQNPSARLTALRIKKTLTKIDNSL

[21] = target: T20, EPHA3 (Homo sapiens, UniProt P29320); assay: Proqinase Kinase profiling; details: read-out: % inhibition at 100nM
T20 construct: purchased DiscoverX

[22] = target: T21, KIT_V654A (Homo sapiens, UniProt P10721, V654A); assay: Proqinase Kinase profiling; details: read-out: % inhibition at 100nM
T21 construct: purchased DiscoverX

[23] = target: T22, TSSK1B (Homo sapiens, UniProt Q9BXA7); assay: Proqinase Kinase profiling; details: read-out: % inhibition at 100nM
T22 construct: purchased DiscoverX

[24] = target: T23, MET (Homo sapiens, UniProt P08581); assay: Proqinase Kinase profiling; details: read-out: % inhibition at 100nM
T23 construct: purchased DiscoverX

[25] = target: T24, CDC42BPB (Homo sapiens, UniProt Q9Y5S2); assay: Proqinase Kinase profiling; details: read-out: % inhibition at 100nM
T24 construct: purchased DiscoverX

[26] = target: T25, PRKD3 (Homo sapiens, UniProt O94806); assay: Proqinase Kinase profiling; details: read-out: % inhibition at 100nM
T25 construct: purchased DiscoverX

[27] = target: T26, CDK3_cyclinE (Homo sapiens, UniProt Q00526); assay: Proqinase Kinase profiling; details: read-out: % inhibition at 100nM
T26 construct: purchased DiscoverX

[28] = target: T27, PRKCI (Homo sapiens, UniProt P41743); assay: Proqinase Kinase profiling; details: read-out: % inhibition at 100nM
T27 construct: purchased DiscoverX

[29] = target: T28, EPHA5 (Homo sapiens, UniProt P54756); assay: Proqinase Kinase profiling; details: read-out: % inhibition at 100nM
T28 construct: purchased DiscoverX

[30] = target: T29, MAP2K2 (Homo sapiens, UniProt P36507); assay: Proqinase Kinase profiling; details: read-out: % inhibition at 100nM
T29 construct: purchased DiscoverX
T29 sequence (P36507 whole entry): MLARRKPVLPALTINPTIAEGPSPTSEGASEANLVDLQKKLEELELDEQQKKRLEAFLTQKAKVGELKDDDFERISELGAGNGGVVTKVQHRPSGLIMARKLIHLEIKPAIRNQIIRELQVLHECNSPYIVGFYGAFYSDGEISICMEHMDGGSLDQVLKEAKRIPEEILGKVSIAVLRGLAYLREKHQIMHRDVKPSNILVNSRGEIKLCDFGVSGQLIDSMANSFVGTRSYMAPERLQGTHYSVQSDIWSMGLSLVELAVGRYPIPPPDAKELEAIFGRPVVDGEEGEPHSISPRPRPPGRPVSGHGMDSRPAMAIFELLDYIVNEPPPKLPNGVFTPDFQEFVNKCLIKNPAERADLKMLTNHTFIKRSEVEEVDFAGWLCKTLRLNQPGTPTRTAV

[31] = target: T30, TGFBR2 (Homo sapiens, UniProt P37173); assay: Proqinase Kinase profiling; details: read-out: % inhibition at 100nM
T30 construct: purchased DiscoverX
T30 sequence (P37173 23-567): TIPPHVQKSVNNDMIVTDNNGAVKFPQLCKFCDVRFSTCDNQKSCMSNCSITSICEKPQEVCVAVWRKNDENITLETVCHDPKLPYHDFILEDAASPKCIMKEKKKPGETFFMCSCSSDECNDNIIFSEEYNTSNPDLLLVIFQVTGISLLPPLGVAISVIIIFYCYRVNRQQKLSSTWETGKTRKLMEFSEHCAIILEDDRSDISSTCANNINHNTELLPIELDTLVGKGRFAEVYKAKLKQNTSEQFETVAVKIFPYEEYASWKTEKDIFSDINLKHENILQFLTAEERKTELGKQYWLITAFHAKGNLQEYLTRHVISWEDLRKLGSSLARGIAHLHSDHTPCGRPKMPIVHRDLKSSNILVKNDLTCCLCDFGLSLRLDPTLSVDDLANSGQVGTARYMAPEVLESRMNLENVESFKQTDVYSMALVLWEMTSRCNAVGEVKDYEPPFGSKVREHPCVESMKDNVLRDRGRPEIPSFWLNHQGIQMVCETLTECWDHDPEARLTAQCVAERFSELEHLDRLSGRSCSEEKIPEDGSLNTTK

[32] = target: T31, CDK7_cyclinH_MAT1 (Homo sapiens, UniProt P50613); assay: Proqinase Kinase profiling; details: read-out: % inhibition at 100nM
T31 construct: purchased DiscoverX

[33] = target: T32, FGFR1 (Homo sapiens, UniProt P11362); assay: Proqinase Kinase profiling; details: read-out: % inhibition at 100nM
T32 construct: purchased DiscoverX

[34] = target: T33, EGFR_T790M_L858R (Homo sapiens, UniProt P00533, L858R/T790M); assay: Proqinase Kinase profiling; details: read-out: % inhibition at 100nM
T33 construct: purchased DiscoverX

[35] = target: T34, SGK2 (Homo sapiens, UniProt Q9HBY8); assay: Proqinase Kinase profiling; details: read-out: % inhibition at 100nM
T34 construct: purchased DiscoverX

[36] = target: T35, ALK_C1156Y (Homo sapiens, UniProt Q9UM73, C1156Y); assay: Proqinase Kinase profiling; details: read-out: % inhibition at 100nM
T35 construct: purchased DiscoverX

[37] = target: T36, BRSK1 (Homo sapiens, UniProt Q8TDC3); assay: Proqinase Kinase profiling; details: read-out: % inhibition at 100nM
T36 construct: purchased DiscoverX

[38] = target: T37, FGR (Homo sapiens, UniProt P09769); assay: Proqinase Kinase profiling; details: read-out: % inhibition at 100nM
T37 construct: purchased DiscoverX
T37 sequence (P09769 whole entry): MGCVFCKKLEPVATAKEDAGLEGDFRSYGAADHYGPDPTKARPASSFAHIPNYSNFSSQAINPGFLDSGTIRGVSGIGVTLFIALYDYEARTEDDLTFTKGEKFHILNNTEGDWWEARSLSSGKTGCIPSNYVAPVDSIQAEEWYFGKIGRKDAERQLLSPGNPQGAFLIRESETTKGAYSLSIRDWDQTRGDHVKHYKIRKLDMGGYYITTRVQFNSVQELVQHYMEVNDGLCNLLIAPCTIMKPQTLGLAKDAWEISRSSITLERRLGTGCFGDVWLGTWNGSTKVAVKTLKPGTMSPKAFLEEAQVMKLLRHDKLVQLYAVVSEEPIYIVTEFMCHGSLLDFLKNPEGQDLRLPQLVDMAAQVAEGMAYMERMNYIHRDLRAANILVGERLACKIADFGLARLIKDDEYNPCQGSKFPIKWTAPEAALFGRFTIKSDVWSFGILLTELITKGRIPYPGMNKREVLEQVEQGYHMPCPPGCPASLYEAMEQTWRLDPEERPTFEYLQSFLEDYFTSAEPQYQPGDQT

[39] = target: T38, FRAP1 (Homo sapiens, UniProt P42345); assay: Proqinase Kinase profiling; details: read-out: % inhibition at 100nM
T38 construct: purchased DiscoverX

[40] = target: T39, CHEK1 (Homo sapiens, UniProt O14757); assay: Proqinase Kinase profiling; details: read-out: % inhibition at 100nM
T39 construct: purchased DiscoverX

[41] = target: T40, ROCK2 (Homo sapiens, UniProt O75116); assay: Proqinase Kinase profiling; details: read-out: % inhibition at 100nM
T40 construct: purchased DiscoverX

[42] = target: T41, GCK (Homo sapiens, UniProt Q12851); assay: Proqinase Kinase profiling; details: read-out: % inhibition at 100nM
T41 construct: purchased DiscoverX

Clc1cc2cc(c1)-c1cnn3ccc(nc13)NCCOCCO2 [OD36]
inhibition at 0.1 µM [1]: 48%
inhibition at 0.1 µM [2]: 6%
inhibition at 0.1 µM [3]: 28%
inhibition at 0.1 µM [4]: 16%
inhibition at 0.1 µM [5]: 90%
inhibition at 0.1 µM [6]: 12%
inhibition at 0.1 µM [7]: 8%
inhibition at 0.1 µM [8]: -4%
inhibition at 0.1 µM [9]: 3%
inhibition at 0.1 µM [10]: 11%
inhibition at 0.1 µM [11]: 28%
inhibition at 0.1 µM [12]: -1%
inhibition at 0.1 µM [13]: 11%
inhibition at 0.1 µM [14]: 14%
inhibition at 0.1 µM [15]: 35%
inhibition at 0.1 µM [16]: 7%
inhibition at 0.1 µM [17]: 10%
inhibition at 0.1 µM [18]: 2%
inhibition at 0.1 µM [19]: 14%
IC50 [20]: 47 nM
inhibition at 0.1 µM [21]: 12%
inhibition at 0.1 µM [22]: 5%
inhibition at 0.1 µM [23]: 9%
inhibition at 0.1 µM [24]: 3%
inhibition at 0.1 µM [25]: 7%
inhibition at 0.1 µM [26]: 2%
inhibition at 0.1 µM [27]: 11%
inhibition at 0.1 µM [28]: 11%
inhibition at 0.1 µM [29]: 10%
inhibition at 0.1 µM [30]: -7%
inhibition at 0.1 µM [31]: 68%
inhibition at 0.1 µM [32]: 0%
inhibition at 0.1 µM [33]: 14%
inhibition at 0.1 µM [34]: -13%
inhibition at 0.1 µM [35]: 6%
inhibition at 0.1 µM [36]: 13%
inhibition at 0.1 µM [37]: 8%
inhibition at 0.1 µM [38]: 26%
inhibition at 0.1 µM [39]: 14%
inhibition at 0.1 µM [40]: 11%
inhibition at 0.1 µM [41]: 7%
inhibition at 0.1 µM [42]: 35%

Cc1cc2cc(c1)-c1cnn3ccc(nc13)NCCNC(=O)CCN(C)C2 [OD52]
inhibition at 0.1 µM [1]: 4%
inhibition at 0.1 µM [2]: 8%
inhibition at 0.1 µM [3]: 9%
inhibition at 0.1 µM [4]: 11%
inhibition at 0.1 µM [5]: 17%
inhibition at 0.1 µM [6]: 11%
inhibition at 0.1 µM [7]: -6%
inhibition at 0.1 µM [8]: 2%
inhibition at 0.1 µM [9]: -25%
inhibition at 0.1 µM [10]: -1%
inhibition at 0.1 µM [11]: -22%
inhibition at 0.1 µM [12]: -7%
inhibition at 0.1 µM [13]: -12%
inhibition at 0.1 µM [14]: -10%
inhibition at 0.1 µM [15]: -6%
inhibition at 0.1 µM [16]: 14%
inhibition at 0.1 µM [17]: -9%
inhibition at 0.1 µM [18]: -1%
inhibition at 0.1 µM [19]: 3%
IC50 [20]: 72 nM
inhibition at 0.1 µM [21]: -20%
inhibition at 0.1 µM [22]: -9%
inhibition at 0.1 µM [23]: -5%
inhibition at 0.1 µM [24]: -5%
inhibition at 0.1 µM [25]: 11%
inhibition at 0.1 µM [26]: 4%
inhibition at 0.1 µM [27]: 5%
inhibition at 0.1 µM [28]: -17%
inhibition at 0.1 µM [29]: -1%
inhibition at 0.1 µM [30]: 7%
inhibition at 0.1 µM [31]: 0%
inhibition at 0.1 µM [32]: -6%
inhibition at 0.1 µM [33]: 5%
inhibition at 0.1 µM [34]: 0%
inhibition at 0.1 µM [35]: -1%
inhibition at 0.1 µM [36]: -6%
inhibition at 0.1 µM [37]: -1%
inhibition at 0.1 µM [38]: 0%
inhibition at 0.1 µM [39]: -1%
inhibition at 0.1 µM [40]: -8%
inhibition at 0.1 µM [41]: -9%
inhibition at 0.1 µM [42]: 1%

Reference: publication PMC6874179, “Development of Macrocycle Kinase Inhibitors for ALK2 Using Fibrodysplasia Ossificans Progressiva‐Derived Endothelial Cells” (JBMR Plus, 2019)
